# Experimental data published in patent publication US7414068B2, “Benzopyran derivatives substituted with secondary amines including tetrazole, method for the preparation thereof and pharmaceutical compositions containing them” (Dongbu Hannong Chemical Co., Ltd., priority 2002, dated 2008).
# Legend:
# [1] = tested on: isolated rat aorta; test: Vasodilating effect on blood vessel excised from rats (methoxamine-constricted aorta); settings: isolated rat aorta constricted with methoxamine (3 μM); read-out: Concentration for inhibition of constriction induced by methoxamine in rat arota (IC50)
# From the text: Rats (350˜450 g, obtained from the Experimental Animal Team of the Korea Research Institute of Chemical Technology) were knocked to be unconscious by hitting the occipital region, sacrificed by cervical dislocation, and underwent thoracotomy. After being quickly removed, the thoracic aorta was deprived of the adipose tissue and cut into aortic rings of 3 mm width. The aorta was lightly rubbed with cotton club soaked in a modified Krebs Henseleit buffer (Physiological salt solution) to remove the inner epithelial layer therefrom. While being hung in an organ bath containing a physiological buffer, the vascular smooth muscle was allowed to equilibrate under a resting tension of 2 g and then, stand for 1 hour at 37° C. for stabilization, supplying a carbogen consisting of 95% O2˜5% CO2.
# Thereafter, the vascular smooth muscle was constricted with 10^−5M phenylephrine and washed several times with physiological saline solution. The said procedure was repeated again to ensure the stable reactivity of vascular smooth muscle to repetitive constriction/relaxation.
# Thereafter, 3×10^−6 M methoxamine was applied to induce an intensive constriction in the vascular smooth muscle. When the vasoconstriction induced by the methoxamine was reached and maintained to a maximum, test compounds and control material was cumulatively added to the organ bath in concentration of 1, 3, 10 and 30 μM, respectively, to examine the vasodilating effect. Cromakalim, BMS-180448 (the compound of formula 4) and BMS-191095 (the compound of formula 5), known to be the first generation KATP opener with potent vasodilating effect were used as control materials.
# The change rate of constriction by the addition of the drugs compared to the maximal constriction induced by methoxamine was calculated to plot a concentration-relaxation response curve. Through a least linear regression analysis, IC50 that the drug concentration at which the vascular tissue is relaxed to 50% extent of the maximal constriction, was obtained for each drug.
# [2] = tested on: cortical neuron cells; test: Protective effect on iron-induced neuronal cell injury (LDH release); assay type: cell-based; settings: FeSO4 50 μM; for protective effect on neuron cell: Inhibition (%, 30 μM compound addition): LDH reduction vs control; for IC50: LDH
# Method: From the brains of 17˜18 day-old embryos, cortical neuron cells were isolated and then, cultured at 37° C. for 7˜9 days in a 5% CO2 incubator. The said cortical cell cultures were washed twice with MEM (Minimum essential medium) to reduce the serum level to 0.2%. […] Then, the compound of the said concentration was pre-treated for 30 min, respectively. For the experiment, test compound was dissolved in DMSO and diluted in a medium. At this time, the final concentration of DMSO was not allowed to exceed 0.1%. For control group, only vehicle was applied.
# After the said pre-treatment, FeSO4 was added to the medium for a final concentration to be 50 μM. The medium was cultured in CO2 incubator for 24 hours. During the incubation, lactate dehydrogenase (LDH) was released by iron. The serum level of lactate dehydrogenase released into the medium was measured to assess necrosis of neuronal cell by the oxidative toxicity of iron. The protective effect on neuron cells of the test compounds was evaluated by calculating the LDH reduction rate of treatment-group compared with that of the control group.
# [3] = tested on: isolated ischemic rat heart; test: Cardioprotective effect in ischemic heart models of rats (Langendorff); settings: 10 μM
# Method: Male rats (300˜450 g, obtained form the experimental animal team of the Korea Research Institute of Chemical Technology) were anaesthetized by the intra-peritoneal injection of sodium pentobarbital at a dose of 100 mg/kg. Heparin (1,000 U/kg) was injected to the tail vein and then the heart was enucleated. Particularly, cannula (PE 240) was inserted to the organ. Rats were mechanically ventilated with a rodent ventilator, in situ aorta cannula was inserted into their aorta. In retorograde perfusion, their hearts were enucleated, then just hung onto Langendorff Apparatus. Tissue attached at the heart was removed. Heart was perfused in oxygenated modified Krebs-Henseleit bicarbonate buffer (composition<mM/L>116 NaCl, 4.7 KCl, 1.1 MgSO4, 1.17 KH2PO4, 24.9 NaHCO3, 2.52 CaCl2, 8.32 Glucose, 2.0 Pyruvate) at a constant perfusion pressure (85 mmHg). A metal cannula attached to latex balloon filled with solvent (ethanol: water=1:1 (v/v)) was placed in the left ventricle through pulmonary vein and connected to a isovolumetric pressure transducer (H.S.E., Germany) for measurement of left ventricular pressure (LVP). The hearts were allowed to equilibrate for 15 min, at which time left ventricular end-diastolic pressure (EDP) was adjusted to 5 mmHg and this balloon volume was maintained throughout the experiment.
# Baseline cardiac contractile function, heart rate (HR), and coronary flow (CF) were measured. Cardiac contractile function was calculated by […], yielding LVDP (left ventricular developed pressure). Double product RPP (rate-pressure product) (DP), another important parameter for indirectly assessing cardiac performance in Langendorff heart impossible to measure cardiac output was calculated by multiplying HR by LVDP.
# Throughout the experiment, total coronary blood flow was measured by the use of coronary flow probe (diameter: 1.0 mm) installed in aortic cannula with electromagnetic flowmeter. Temperature of heart was steadily maintained by immersing the heart at 37° C. in physiological saline solution to which 95% O2/5% CO2 was constantly supplied. After stabilization for 15 min, the hearts were pre-treated for 10 min in vehicle (0.04% DMSO) or mixture containing the compound of the present invention or control material. Thereafter, cardiac contractile function, HR and CF were repeatedly measured. Global ischemia was induced by completely shutting off the perfusate for 30 min. Severity of ischemia was determined as the time to contracture (TTC, min) during global ischemia in which the first 5 mmHg increase in EDP was observed. Then, the hearts were reperfused and, 30 min later, contractile functions (LVDP, HR and CF) was repeatedly measured. After reperfusion was accomplished for 30 min, LDH (lactate dehydrogenase) was measured as a sensitive index for loss of cell viability with a kit.
# [4] = Acute oral toxicity test in rats; settings: SD, rat, in vivo, single oral dose, suspended in 0.5% methyl cellulose, read-out: lethal dose (LD50) for oral administration
# Method: In this test, six-week old SPF SD rats were used with two rats assigned to each group. Each group was consisted of two rats. The compounds prepared in example 1, 7, 11, 17, 22, 24, 26, 28, 30, 32, 34, 42, 52, 54, 55, 56, 57, 59, 60, 61, 70, 75, 77, 79, 81, 83, 85, and 89 were suspended in 0.5% methyl cellulose, respectively. […] Also, hematological test and biochemical analysis were accomplished. After sacrificing the animals, autopsy was performed for macroscopic observations of the organs and tissues. As a result, there was no significant changes in clinical symptoms, body weight and mortalities. Also in hematology, serum chemistry parameters, macroscopic observation and drug-related changes were not observed.
Compound,IC50 [1] [µM],"protective effect on neuron cell: Inhibition (%, 30 μM compound addition) ([2]; 24 hours) [%]","IC50 ([2]; Cortical neurone, 24 h) [nM]",EDP (mmHg) ([3]; after 30 min global ischemia and reperfusion),LDH (u/g) ([3]; reperfusion LDH release),"LVDP X HR (%) ([3]; reperfusion, % of pre-treatment DP)",TTC ([3]; time to contracture during global ischemia) [min],LD50 [4] [mg/kg],IC50 ([2]; 24 hours) [nM]
"COC(OC)[C@@]1(C)Oc2ccc([N+](=O)[O-])cc2[C@@H](N(Cc2nnn(C)n2)c2ccc(Cl)cc2)[C@@H]1O [Example 1, (2S,3S,4R)-6-nitro-4-[N-(4-chlorophenyl)-N-(2-methyl-2H-tetrazol-5-ylmethyl)amino]-3-hydroxy-2-methyl-2-dimethoxymethyl-3,4-dihydro-2H-1-benzopyran]",7.14,71,18100,29.3,15.2,46.8,24.8,> 2000,–
"COC(OC)[C@@]1(C)Oc2ccc([N+](=O)[O-])cc2[C@@H](N(Cc2ccccc2)Cc2nnn(C)n2)[C@@H]1O [Example 7, (2S,3S,4R)-6-nitro-4-[N-benzyl-N-(2-methyl-2H-tetrazol-5-ylmethyl)amino]-3-hydroxy-2-methyl-2-dimethoxymethyl-3,4-dihydro-2H-1-benzopyran]",5.59,59,34100,–,–,–,–,> 2000,–
"COC(OC)[C@@]1(C)Oc2ccc(N)cc2[C@@H](N(Cc2nnn(C)n2)c2cccc(Cl)c2)[C@@H]1O [Example 22, (2S,3S,4R)-6-amino-4-[N-(3-chlorophenyl)-N-(2-methyl-2H-tetrazol-5-ylmethyl)amino]-3-hydroxy-2-methyl-2-dimethoxymethyl-3,4-dihydro-2H-1-benzopyran]",> 30,97,5900,–,–,–,–,> 2000,–
"COC(OC)[C@@]1(C)Oc2ccc(N)cc2[C@H](N(Cc2nnn(C)n2)c2cccc(Cl)c2)[C@H]1O [Example 26, (2S,3R,4S)-6-amino-4-[N-(3-chlorophenyl)-N-(2-methyl-2H-tetrazol-5-ylmethyl)amino]-3-hydroxy-2-methyl-2-dimethoxymethyl-3,4-dihydro-2H-1-benzopyran]",24.6,97,2200,–,–,–,–,> 2000,–
"COC(OC)[C@@]1(C)Oc2ccc([N+](=O)[O-])cc2[C@H](N(Cc2nnn(C)n2)c2ccc(OC(F)(F)F)cc2)[C@H]1O [Example 31, (2S,3R,4S)-6-nitro-4-[N-(4-trifluoromethoxyphenyl)-N-(2-methyl-2H-tetrazol-5-ylmethyl)amino]-3-hydroxy-2-methyl-2-dimethoxymethyl-3,4-dihydro-2H-1-benzopyran]",> 30,86,< 2000,–,–,–,–,–,1800
"COC(OC)[C@@]1(C)Oc2ccc(N)cc2[C@H](N(Cc2nnn(C)n2)c2ccc(C(F)(F)F)cc2)[C@H]1O [Example 34, (2S,3R,4S)-6-amino-4-[N-(4-trifluoromethylphenyl)-N-(2-methyl-2H-tetrazol-5-ylmethyl)amino]-3-hydroxy-2-methyl-2-dimethoxymethyl-3,4-dihydro-2H-1-benzopyran]",> 30,111,1500,–,–,–,–,> 2000,–
"COC(OC)[C@@]1(C)Oc2ccc(N)cc2[C@@H](N(Cc2nnn(C)n2)c2ccc(C(F)(F)F)cc2)[C@@H]1O [Example 75, (2S,3S,4R)-6-amino-4-[N-(4-trifluoromethylphenyl)-N-(2-methyl-2H-tetrazol-5-ylmethyl)amino]-3-hydroxy-2-methyl-2-dimethoxymethyl-3,4-dihydro-2H-1-benzopyran]",> 30,125,< 2000,–,–,–,–,> 2000,1800
"COC(OC)[C@]1(C)Oc2ccc(N)cc2[C@@H](N(Cc2nnn(C)n2)c2ccc(C(F)(F)F)cc2)[C@@H]1O [Example 77, (2R,3S,4R)-6-amino-4-[N-(4-trifluoromethylphenyl)-N-(2-methyl-2H-tetrazol-5-ylmethyl)amino]-3-hydroxy-2-methyl-2-dimethoxymethyl-3,4-dihydro-2H-1-benzopyran]",> 30,111,< 2000,–,–,–,–,> 2000,1900
"COC(OC)[C@]1(C)Oc2ccc(N)cc2[C@H](N(Cc2nnn(C)n2)c2ccc(OC(F)(F)F)cc2)[C@H]1O [Example 83, (2R,3R,4S)-6-amino-4-[N-(4-trifluoromethoxyphenyl)-N-(2-methyl-2H-tetrazol-5-ylmethyl)amino]-3-hydroxy-2-methyl-2-dimethoxymethyl-3,4-dihydro-2H-1-benzopyran]",> 30,80,3700,–,–,–,–,> 2000,–
"COC(OC)[C@]1(C)Oc2ccc(N)cc2[C@@H](N(Cc2nnn(C)n2)c2ccc(OC(F)(F)F)cc2)[C@@H]1O [Example 85, (2R,3S,4R)-6-amino-4-[N-(4-trifluoromethoxyphenyl)-N-(2-methyl-2H-tetrazol-5ylmethyl)amino]-3-hydroxy-2-methyl-2-dimethoxymethyl-3,4-dihydro-2H-1-benzopyran]",> 30,119,< 2000,–,–,–,–,> 2000,1800
"COC(OC)[C@@]1(C)Oc2ccc([N+](=O)[O-])c(C)c2[C@@H](N(Cc2nnn(C)n2)c2ccc(Cl)cc2)[C@@H]1O [Example 98, (2S,3S,4R)-6-nitro-5-methyl-4-[N-(4-chlorophenyl)-N-(2-methyl-2H-tetrazol-5-ylmethyl)amino]-3-hydroxy-2-methyl-2-dimethoxymethyl-3,4-dihydro-2H-1-benzopyran]",7.34,85,10500,–,–,–,–,–,–
